Laboratory results taken from publication PMC10799085, “A miniaturized mode-of-action profiling platform enables high throughput characterization of the molecular and cellular dynamics of EZH2 inhibition” (Scientific Reports, 2024).
Like-named read-outs stand apart in the source and are kept apart here.

Legend:
PRC2/EZH2+/+ [1] = biological target: T1, PRC2/EZH2+/+ (Homo sapiens, UniProt Q15910); experiment: Equilibrium probe competition assay (ePCA), TR-FRET; type: binding
T1 construct: purchased Active Motif

PRC2/EZH2+/+ [2] = biological target: T1, PRC2/EZH2+/+; experiment: Kinetic probe competition assay (kPCA), TR-FRET; type: binding; settings: for Kd: sheet ePCA&kPCA RT, read-out: Kinetic Kd
Experimental: (§1) Biotinylated PRC2 complexes and the fluorescent probe used in TR-FRET assays were generated as described in the supplementary methods section.
For measurements at 25, 30 and 37 °C, the temperature control functionality of the instrument was used.
TR-FRET kPCA traces were exported via Microsoft Excel to GraphPad Prism, where non-specific signals were subtracted and kinetic association competition traces were fitted to the Motulsky–Mahan model “kinetics of competitive binding” to obtain kon (k3), koff (k4) and KD parameters.

PRC2/EZH2Y641N [3] = biological target: T2, PRC2/EZH2Y641N (Homo sapiens, UniProt Q15910, Y641N); experiment: Kinetic probe competition assay (kPCA), TR-FRET; type: binding
T2 construct: Synthetic cDNA encoding N-terminal 6His-tagged full length EZH2^Y641N; 6His (N); made in house; host or cells: Sf9 insect cells (baculovirus co-infection)
Source text: as §1

PRC2/EZH2 Y111L = biological target: T3, PRC2/EZH2 Y111L (Homo sapiens, UniProt Q15910, Y111L); experiment: Scintillation proximity assay (SPA) of H3K27 methylation; type: biochemical
T3 construct: N-terminal 6His-tagged full length EZH2^Y641N, EZH2^Y111L; 6His (N); made in house; host or cells: Sf9 insect cells (baculovirus co-infection)
Experimental: (§2) Assay-ready plates containing 50 nl of compound dilutions and DMSO controls were filled with 2.5 µL enzyme solution and pre-incubated for 15 min. […] Experiments were also performed without pre-incubation of enzyme and compounds. In this case, the substrate solution was added before enzyme. The reaction was stopped using 1.6 µg/µl streptavidin beads (Perkin Elmer) and 700 µM of SAM (Perkin Elmer). The plates were sealed with transparent foil.
(§3) For equilibrium binding competition (ePCA) and SPA enzyme inhibition assays, raw data import, quality control, normalization, and curve fitting to a 4-parameter logistic equation for IC50 determination were performed using the Genedata Screener® software (Genedata AG). ePCA Ki values were either calculated using the Cheng-Prussof equation[68] or with the GraphPad Prism model “One-site—Fit Ki”.

PRC2/EZH2+/+ [4] = biological target: T1, PRC2/EZH2+/+; experiment: as above; type: biochemical
Experimental: as §2, §3

PRC2/EZH2Y111D = biological target: T4, PRC2/EZH2Y111D (Homo sapiens, UniProt Q15910, Y111D); experiment: as above; type: biochemical
T4 construct: N-terminal 6His-tagged full length EZH2^Y641N, EZH2^Y111L, EZH2^Y111D; 6His (N); made in house; host or cells: Sf9 insect cells (baculovirus co-infection)
Experimental: as §2, §3

PRC2/EZH2Y641N [5] = biological target: T2, PRC2/EZH2Y641N; experiment: as above; type: biochemical
Experimental: as §2, §3

PRC2/EZH2Y641N+Y661D = biological target: T5, PRC2/EZH2Y641N+Y661D (Homo sapiens, UniProt Q15910, Y641N/Y661D); experiment: as above; type: biochemical
T5 construct: N-terminal 6His-tagged full length EZH2^Y641N, EZH2^Y111L, EZH2^Y111D, EZH2^Y641N, Y661DEZH2, EZH1; 6His (N); made in house; host or cells: Sf9 insect cells (baculovirus co-infection)
Experimental: as §2, §3

KARPAS-422 cells = experiment: Cellular proliferation assay (AlamarBlue, 144 h); type: cell-based; settings: Homo sapiens; KARPAS-422 cells, 6-day (144 h), AlamarBlue; read-out: KARPAS (6-day) Anti-proliferation IC50
Experimental: Cell viability was determined by means of the AlamarBlue® reagent (Thermo Fisher Scientific) following instructions from the manufacturer. […] Anti-proliferative IC50s were calculated by fitting the normalized AlamarBlue® fluorescence values to a 4-parameter logistic equation using the Electronic Notebook (ELN) software from IDBS.

in vitro = in vitro ADME; settings: human, Caco-2, pH 7.2, 2 µM, 2 h, 37 °C
Experimental: Cells were kept at 37 °C in a humidified 5% CO2 atmosphere. Before the permeation assay was run, the culture medium was replaced by an FCS-free HEPES carbonate transport buffer (pH 7.2). For assessment of monolayer integrity, the transepithelial electrical resistance was measured. Test compounds were pre-dissolved in DMSO and added either to the apical or basolateral compartment at a final concentration of 2 µM. Before and after 2 h incubation at 37 °C, samples were taken from both compartments. Analysis of compound content was conducted after precipitation with methanol by LC/MS/MS analysis. Reference compounds were analyzed in parallel as assay control. Permeability (Papp) was calculated in the apical to basolateral (A → B) and basolateral to apical (B → A) directions. The efflux ratio basolateral (B) to apical (A) was calculated by dividing Papp B–A by Papp A–B.

Ki (PRC2/EZH2+/+ [1]; EZH2+/+ (+ H3K27me3), sheet ePCA&kPCA RT, read-out: Equilibrium Ki): 0.00114 µM
Ki (PRC2/EZH2+/+ [1]; EZH2+/+ (- H3K27me3), 5 °C, read-out: Ki (Equilibrium)): 0.00192 µM
Ki (PRC2/EZH2+/+ [1]; EZH2+/+ (- H3K27me3), 15 °C, read-out: Ki (Equilibrium)): 0.0016 µM
Ki (PRC2/EZH2+/+ [1]; EZH2+/+ (- H3K27me3), 30 °C, read-out: Ki (Equilibrium)): 0.00806 µM
Ki (PRC2/EZH2+/+ [1]; EZH2+/+ (- H3K27me3), 37 °C, read-out: Ki (Equilibrium)): 0.00947 µM
Ki (PRC2/EZH2+/+ [1]; EZH2+/+ (- H3K27me3), sheet ePCA&kPCA RT, read-out: Equilibrium Ki): 0.00283 µM
Ki (PRC2/EZH2+/+ [1]; wild type EZH2, absence of H3K27me3 peptide, read-out: Ki): 0.0028 ± 0.0009 µM
Ki (PRC2/EZH2+/+ [1]; wild type EZH2, saturating concentrations of H3K27me3 peptide, read-out: Ki): 0.0011 ± 0.0005 µM
Calculated RT (PRC2/EZH2+/+ [2]; EZH2+/+ (+ H3K27me3)): 0.20 h
Kd (PRC2/EZH2+/+ [2]; EZH2+/+ (+ H3K27me3)): 0.00054 µM
RT (Calculated) (PRC2/EZH2+/+ [2]; EZH2+/+ (- H3K27me3), 5 °C): 0.341 h
RT (Calculated) (PRC2/EZH2+/+ [2]; EZH2+/+ (- H3K27me3), 15 °C): 0.0983 h
RT (Calculated) (PRC2/EZH2+/+ [2]; EZH2+/+ (- H3K27me3), 30 °C): 0.0171 h
RT (Calculated) (PRC2/EZH2+/+ [2]; EZH2+/+ (- H3K27me3), 37 °C): 0.0129 h
Calculated RT (PRC2/EZH2+/+ [2]; EZH2+/+ (- H3K27me3)): 0.0369 h
Kd (PRC2/EZH2+/+ [2]; EZH2+/+ (- H3K27me3)): 0.00239 µM
Calculated RT (PRC2/EZH2Y641N [3]; EZH2Y641N (+ H3K27me3)): 0.07 h
Kd (PRC2/EZH2Y641N [3]; EZH2Y641N (+ H3K27me3), kinetic, RT sheet): 0.00456 µM
Calculated RT (PRC2/EZH2Y641N [3]; EZH2Y641N (- H3K27me3)): 0.0242 h
Kd (PRC2/EZH2Y641N [3]; EZH2Y641N (- H3K27me3), sheet ePCA&kPCA RT): 0.035 µM
IC50 (PRC2/EZH2 Y111L; 0' enzyme:inhibitor pre-incubation, read-out: SPA Mean IC50 (M) - 0' enzyme:inhibitor pre-incubation EZH2 Y111L): 3.1e-08 M
IC50 (PRC2/EZH2 Y111L; 15' enzyme:inhibitor pre-incubation, read-out: SPA Mean IC50 (M) - 15' enzyme:inhibitor pre-incubation EZH2 Y111L): 2.2e-08 M
IC50 (PRC2/EZH2 Y111L; 60' enzyme:inhibitor pre-incubation, read-out: SPA Mean IC50 (M) - 60' enzyme:inhibitor pre-incubation EZH2 Y111L): 2.5e-08 M
IC50 (PRC2/EZH2+/+ [4]; 0' enzyme:inhibitor pre-incubation, read-out: SPA Mean IC50 (M) - 0' enzyme:inhibitor pre-incubation EZH2+/+): 5.2e-09 M
IC50 (PRC2/EZH2+/+ [4]; 15' enzyme:inhibitor pre-incubation, read-out: SPA Mean IC50 (M) - 15' enzyme:inhibitor pre-incubation EZH2+/+): 3.7e-09 M
IC50 (PRC2/EZH2+/+ [4]; 60' enzyme:inhibitor pre-incubation, read-out: SPA Mean IC50 (M) - 60' enzyme:inhibitor pre-incubation EZH2+/+): 3.1e-09 M
IC50 (PRC2/EZH2Y111D; 0' enzyme:inhibitor pre-incubation, read-out: SPA Mean IC50 (M) - 0' enzyme:inhibitor pre-incubation EZH2Y111D): 5.9e-06 M
IC50 (PRC2/EZH2Y111D; 15' enzyme:inhibitor pre-incubation, read-out: SPA Mean IC50 (M) - 15' enzyme:inhibitor pre-incubation EZH2Y111D): 4e-06 M
IC50 (PRC2/EZH2Y111D; 60' enzyme:inhibitor pre-incubation, read-out: SPA Mean IC50 (M) - 60' enzyme:inhibitor pre-incubation EZH2Y111D): 3.2e-06 M
IC50 (PRC2/EZH2Y641N [5]; 0' enzyme:inhibitor pre-incubation, read-out: SPA Mean IC50 (M) - 0' enzyme:inhibitor pre-incubation hEZH2Y641N): 3.8e-08 M
IC50 (PRC2/EZH2Y641N [5]; 15' enzyme:inhibitor pre-incubation, read-out: SPA Mean IC50 (M) - 15' enzyme:inhibitor pre-incubation EZH2Y641N): 3.6e-08 M
IC50 (PRC2/EZH2Y641N [5]; 60' enzyme:inhibitor pre-incubation, read-out: SPA Mean IC50 (M) - 60' enzyme:inhibitor pre-incubation EZH2Y641N): 3.2e-08 M
IC50 (PRC2/EZH2Y641N+Y661D; 0' enzyme:inhibitor pre-incubation, read-out: SPA Mean IC50 (M) - 0' enzyme:inhibitor pre-incubation EZH2Y641N+Y661D): 3e-06 M
IC50 (PRC2/EZH2Y641N+Y661D; 15' enzyme:inhibitor pre-incubation, read-out: SPA Mean IC50 (M) - 15' enzyme:inhibitor pre-incubation EZH2Y641N+Y661D): 2.4e-06 M
IC50 (PRC2/EZH2Y641N+Y661D; 60' enzyme:inhibitor pre-incubation, read-out: SPA Mean IC50 (M) - 60' enzyme:inhibitor pre-incubation EZH2Y641N+Y661D): 3.2e-06 M
IC50 (KARPAS-422 cells): 0.63 µM
Papp A→B at 2 h, 2 µM (in vitro; apical to basolateral, read-out: PK Caco-2 Flux Papp A-B (mean)): 0.314 ×10⁻⁶ cm/s
Papp B→A at 2 h, 2 µM (in vitro; basolateral to apical, read-out: PK Caco-2 Flux Papp B-A (mean)): 12.6 ×10⁻⁶ cm/s
Structure (SMILES): CCCc1cc(C)[nH]c(=O)c1CNC(=O)c1cc(-c2ccc(N3CCN(C(C)C)CC3)nc2)cc2c1cnn2C(C)C [Compound 9, UNC1999]
